According to US11622954B2, “Estrogen receptor ligands, compositions and methods related thereto” (The Regents of the University of California, priority 2016, dated 2023):
One block for each molecule: values may come before it.

Assays:
[1] = concentrations over time in plasma, spinal cord and brain, adoptive EAE setup (Example 4); type: in vivo, mice; conditions: for persistence in brain and spinal tissue: 12 hours
Procedure: The experimental setup and monitoring was the same as in Example 2. […] Both Compounds 1 and 2 persisted in brain and spinal tissue at 12 hours.

active EAE = active EAE clinical score (Example 1); type: in vivo, C57BL6 female mice; conditions: high dose (8 mg/kg DPN, 10.8 mg/kg Compound 1), every other day, day 12 to day 48; FIG. 1A
adoptive EAE = adoptive EAE clinical score (Example 2); type: in vivo, mice; conditions: FIG. 2A; for EAE clinical score, dose dependence: high (8 mg/kg/day) and low (2 mg/kg/day) dose
Text: Active EAE induction in Example 1 uses pertussis toxin to artificially make the BBB more permeable and permit more infiltration of activated Th1/Th17 immune cells into the CNS. […] Thus, an alternative EAE induction method was used. Adoptive EAE uses MOG primed and activated immune cells from donor immunized mice for subsequent transfer into recipient mice with no administration of pertussis toxin. Thus, the blood brain barrier interactions in adoptive EAE are more physiologic than in active EAE. […] This experiment was larger since 2 sets of mice (donors and recipients) were needed and 2 doses were used, making the adoptive EAE experiment 4 times larger than the active EAE experiment 1. […] Brain and spinal cord levels were undetectable 24 hours after dosing.

[2] = DPN concentration 24 hours after dosing in adoptive EAE mice (Example 2); type: in vivo
Procedure: This experiment was larger since 2 sets of mice (donors and recipients) were needed and 2 doses were used, making the adoptive EAE experiment 4 times larger than the active EAE experiment 1.
Brain and spinal cord levels were undetectable 24 hours after dosing.

[3] = tissue concentrations of DPN in healthy mice (Example 3); type: in vivo; conditions: for levels of DPN in plasma, brain and spinal cord, compared to dosing with DPN: molar equivalent doses
Procedure: Compound 1 levels were not measured. […] At 12 hours, only high dose Compound 1 was detectable in plasma.
This experiment was repeated and the data above was confirmed.
This experiment was repeated with fresher standards and faster freezing of tissues once obtained from the mouse sacrifice.

[4] = DPN concentration in plasma, spinal cord and brain of active EAE mice (Example 1); conditions: three hours after the end of disease; FIG. 1B-1D
multiple sclerosis = conditions: cited from earlier work
EAE = conditions: cited from earlier work
[5] = MS patients, phase 2 clinical trial

persistence in brain and spinal tissue [1]: persisted
concentration in plasma, spinal cord and brain tissue, among DPN, Compound 1 and Compound 2 ([1]; first 6 hours after treatment, FIG. 7A-7C): highest concentration
SMILES: CCC(=O)Oc1ccc(CC(C#N)c2ccc(OC(=O)CC)cc2)cc1 (stereo not drawn) [Compound 2]

SMILES: CC(=O)Oc1ccc(C[C@@H](C#N)c2ccc(OC(C)=O)cc2)cc1 [Compound 1]
effect on EAE disease progression (EAE clinical score) (active EAE): protective effects
efficacy on EAE clinical score compared to DPN (adoptive EAE; adoptive EAE): more efficacy
EAE clinical score, dose dependence (adoptive EAE): dose responses
brain and spinal cord levels [2]: undetectable
plasma concentration of DPN, Compound 1 vs DPN ([2]; FIG. 2B): no difference
levels of DPN in plasma, brain and spinal cord, compared to dosing with DPN ([3]; 3 and 6 hours): higher
levels of DPN in plasma, brain and spinal cord, compared to dosing with DPN ([3]; 15 minutes): lower
DPN level in plasma ([3]; 12 hours, high dose): detectable
persistence in brain and spinal tissue [1]: persisted
amounts of DPN in plasma, spinal cord tissue and brain tissue [4]: improvement in maintaining effective amounts of DPN

SMILES: C[C@]12CC[C@@H]3c4ccc(O)cc4CC[C@H]3[C@@H]1C[C@@H](O)[C@@H]2O [estriol]
fatigue (multiple sclerosis; [5]): reduced fatigue
relapses (multiple sclerosis; [5]): reduced relapses
cortical gray matter atrophy (multiple sclerosis; estriol as compared to placebo treated MS patients): spared

SMILES: N#CC(Cc1ccc(O)cc1)c1ccc(O)cc1 (stereo not drawn) [DPN, 2,3-bis(4-hydroxyphenyl)propanenitrile, reference compound]
effect on EAE disease progression (EAE clinical score) (active EAE): protective effects
EAE clinical score, dose dependence (adoptive EAE): dose responses
brain and spinal cord levels [2]: undetectable
efficacy in EAE of dosing regimen (EAE; dosing every two days, shown in the past): efficacious
clinical EAE disease severity (EAE; known treatment of EAE): reduces clinical EAE disease severity
tolerability of dosing regimen (EAE; mouse, in vivo): tolerable
